Where “and” joins values, the source holds several entries; their conditions need not be identical. Identical values can stand only once.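 Test compounds were applied to cells in 96-well plates for 48 hours at 5 doses. TGI marks complete inhibition of growth.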

Assay in all cases: DTP human tumour cell line panel, 48 h
For assay [1], the system named is ACHN renal.
Assay [2] has as its system COLO 205 colon.
The test system of assay [3] is HCT-116 colon.
The subject of assay [4] is HCT-15 colon.
In assay [5] the test system is HOP-62 NSCLC.
In assay [6] the test system is LOX IMVI melanoma.
Assay [7] deals with MALME-3M melanoma.
Assay [8] concerns MCF7 breast.
For assay [9], the system named is MDA-MB-231 breast.
The subject of assay [10] is MDA-MB-435.
The subject of assay [11] is MOLT-4 leukemia.
The test system of assay [12] is NCI-H23 lung.
For assay [13], the system named is OVCAR-4 ovarian.
Assay [14] has as its system PC-3 prostate.
For assay [15], the system named is U251 CNS.
The test system of assay [16] is HT29 colon.
Assay [17] relates to IGROV1 ovarian.
The test system of assay [18] is SF-295 CNS.
For assay [19], the system named is SK-OV-3 ovarian.

By TGI is commonly meant the concentration at which net growth stops. For the compound `COc1ccc(N2C(=O)/C(=C\c3cccc(Oc4ccccc4)c3)S(=O)(=O)C2c2ccccc2)cc1` (stereo not given), the TGI in [1], in [2], in assay [3], in assay [4], in [5] and in assay [6] was above 100 µM each time. In addition, the TGI in [7] is above 100 µM; in [8], above 100 µM; in assay [9], above 100 µM; in [10], above 100 µM; in assay [11], 22.5 µM; in assay [12], above 100 µM. For the same compound, the TGI in assay [13], in assay [14] and in assay [15] was above 100 µM in each case.

`Nc1nc(NNc2ccc(Cl)c(Cl)c2)cc(=O)[nH]1`: the TGI in assay [1] is above 100 µM; in assay [2] it was 61.1 µM; in [3], above 100 µM; in [4], 58.7 µM; in [5] it was above 100 µM; in assay [16], above 100 µM. For the same compound, the TGI in assay [17] was above 100 µM; in assay [6], 33.1 µM; in [7], above 100 µM; in assay [8], 72.5 µM; in [9] it was above 100 µM; in [10], 74.1 µM. For the same compound, the TGI is 90.3 µM in assay [11]; above 100 µM in assay [12]; above 100 µM in assay [13]; above 100 µM in [14]; above 100 µM in assay [18]; 68.3 µM in assay [15].

Regarding `Cc1ccc2c(=O)c(-c3nnc(N)s3)c[nH]c2n1`, the TGI in assay [1], in [2], in [3], in assay [4], in assay [5] and in assay [16] was above 100 µM in each case. For the same compound, the concentration for total growth inhibition (TGI) in assay [17], in [6], in assay [7], in assay [8], in assay [9] and in assay [10] was above 100 µM throughout. For the same compound, the TGI in [11], in assay [12], in assay [13], in assay [14], in assay [18] and in [15] was above 100 µM each time.

In the case of `COc1ccc(-n2c(C)nc3ccc(NC4OCC(O)C(O)C4O)cc3c2=O)cc1` (stereo not given), the TGI was above 100 µM in [1]; above 100 µM in assay [2]; 40.4 µM and 39.3 µM in [3]; 65.8 µM and 80.8 µM in assay [4]; above 100 µM in assay [5]; 68.5 µM and 80.2 µM in [16]. In addition, the TGI was above 100 µM in [17]; 42.6 µM and 50.8 µM in [6]; above 100 µM in assay [7]; above 100 µM in assay [8]; above 100 µM in assay [9]; above 100 µM in assay [10]. Further, the concentration for total growth inhibition (TGI) in [11] was 84.7 µM and > 100 µM; in assay [12], above 100 µM; in assay [13], above 100 µM; in assay [14], above 100 µM; in [18] it was above 100 µM; in [15], above 100 µM.

With `CCN(CC)C(=S)SC1CCOP(=O)(N(CCCl)CCCl)N1C` (stereo not given), the TGI in [1] is above 67.5 µM; in assay [3], above 48.5 µM; in [4], 91.5 µM; in assay [5], above 100 µM; in assay [16], above 100 µM; in assay [17], above 53.1 µM. Further, the concentration for total growth inhibition (TGI) in [7] is 45.9 µM; in assay [8] it was above 100 µM; in assay [9], above 100 µM; in assay [10], above 100 µM; in assay [11], 49.2 µM; in assay [12], above 100 µM. For the same compound, the concentration for total growth inhibition (TGI) in assay [13] was 46.4 µM; in [14] it was above 100 µM; in assay [18], above 100 µM; in [19], above 100 µM; in [15], above 52.5 µM.

Take `CC(C)CC(=O)NC(NC(C)C)(C(F)(F)F)C(F)(F)F`: the concentration for total growth inhibition (TGI) in assay [1], in assay [2], in [3], in assay [4], in [5] and in assay [16] was above 100 µM throughout. Besides, the TGI in [17], in [6], in assay [7], in assay [8], in assay [9] and in [10] was above 100 µM each time. Further, the TGI in assay [11], in assay [13], in assay [14] and in assay [15] was above 100 µM each time.

For the compound `COC(=NCCC1=CCCCC1)OC`, the TGI in [1] was above 100 µM; in [2] it was 31.2 µM; in assay [3] it was above 100 µM; in assay [4], above 100 µM; in assay [5] it was above 100 µM; in [16] it was 82.9 µM. The TGI in assay [17], in assay [7], in assay [8], in [9], in assay [10] and in assay [11] was above 100 µM in each case. The TGI in assay [12], in assay [13], in assay [14], in [18], in assay [19] and in assay [15] was above 100 µM each time.

With `C=C(C)[C@@]1(O)CCC[C@H]1NC(=O)OC(C)(C)C`, the TGI in [1], in assay [2], in assay [3], in assay [4], in assay [5] and in assay [16] was above 100 µM throughout. For the same compound, the TGI in assay [17], in [6], in assay [7], in assay [8], in [9] and in assay [10] was above 100 µM each time. Besides, the TGI in [12], in [13], in assay [14], in assay [18], in [19] and in assay [15] was above 100 µM throughout.

For `Oc1c(-c2ccccc2)sc2ccccc12`, the total growth inhibition concentration (TGI) in assay [1] is above 100 µM; in [2], 28.2 µM; in assay [3], 71 µM; in [4] it was above 100 µM; in assay [5] it was 45.8 µM; in assay [16] it was 81.6 µM. Moreover, the TGI is above 100 µM in [17]; 32.3 µM in assay [6]; 59.6 µM in assay [7]; 65.8 µM in assay [8]; 29.1 µM in assay [9]; above 100 µM in [10]. Also, the total growth inhibition concentration (TGI) in [11] was 88.6 µM; in assay [12], 77.5 µM; in [13], above 100 µM; in assay [14] it was 69.1 µM; in assay [18] it was 45.7 µM; in assay [15], above 100 µM.

As to `CN(C)CCNC(=O)c1cccc2nc3cccc(F)c3nc12`, the TGI in assay [1] turned out to be 3.56 µM; in assay [2], 1.89 µM; in [3] it was 4.56 µM; in assay [4], 5.77 µM; in assay [5] it was 8.55 µM; in assay [16] it was 8.34 µM. The total growth inhibition concentration (TGI) in [17] was found to be 9.67 µM; in assay [6], 2.24 µM; in assay [7], 6.35 µM; in [8] it was 6.56 µM; in [9], 6.77 µM; in assay [10], 2.92 µM. The TGI in assay [11] is 14.2 µM; in assay [12], 5.17 µM; in assay [13] it was 4.83 µM; in assay [14], 4.26 µM; in assay [18], 6.79 µM; in assay [15], 6.61 µM.

With `COC(=O)C1C2C=CC(C2)N1S(=O)(=O)c1ccccc1` (stereo not given), the TGI in assay [1], in [2], in [3], in assay [4], in [5] and in assay [16] was above 100 µM throughout. Also, the total growth inhibition concentration (TGI) in [7], in assay [8], in [9], in [10], in assay [11] and in assay [12] was above 100 µM throughout. The concentration for total growth inhibition (TGI) in assay [13], in assay [14], in assay [18], in assay [19] and in assay [15] was above 100 µM in each case.

On to `C#CCOC(=O)C(N)CSSCC(N)C(=O)O` (stereo not given), for which the concentration for total growth inhibition (TGI) in assay [1], in assay [2], in [3], in assay [4], in assay [5] and in [17] was above 100 µM each time. Besides, the TGI in [6], in [7], in assay [8], in assay [9], in [10] and in assay [11] was above 100 µM in each case. In addition, the TGI in assay [12], in assay [13], in assay [14] and in assay [15] was above 100 µM throughout.

As for `CC(C)N=C(NC#N)NS(=O)(=O)c1cnccc1Nc1ccc(Cl)cc1`, the concentration for total growth inhibition (TGI) in assay [1], in [2], in assay [3], in assay [4], in assay [5] and in assay [16] was above 100 µM each time. Moreover, the total growth inhibition concentration (TGI) in assay [17], in assay [7], in assay [8], in assay [9], in assay [10] and in [11] was above 100 µM each time. For the same compound, the TGI in assay [12], in [13], in assay [14], in assay [18], in [19] and in assay [15] was above 100 µM throughout.

(Values after PubChem BioAssay (NCI).)
